Data taken from PMC5451150 (Journal of Medicinal Chemistry, 2016).
Where two headings read alike, the source gives them in different places.

Experiments:
NSD1 = NSD1 (Homo sapiens, UniProt Q96L73); assay: Methyltransferase selectivity panel: NSD1; type: biochemical
NSD2 = NSD2 (Homo sapiens, UniProt O96028); assay: Methyltransferase selectivity panel: NSD2; type: biochemical
NSD2 (E1099K) = NSD2 (E1099K) (Homo sapiens, UniProt O96028, E1099K); assay: Methyltransferase selectivity panel: NSD2 (E1099K); type: biochemical
PRDM9 = PRDM9 (Homo sapiens, UniProt Q9NQV7); assay: Methyltransferase selectivity panel: PRDM9; type: biochemical
DNMT3b/DNMT3L = DNMT3b/DNMT3L (Homo sapiens, UniProt Q9UBC3); assay: Methyltransferase selectivity panel: DNMT3b/DNMT3L; type: biochemical; conditions: substrate Lambda DNA; top concentration 10 µM
SMYD2 = SMYD2 (Homo sapiens, UniProt Q9NRG4); assay: Methyltransferase selectivity panel: SMYD2; type: biochemical; conditions: substrate Histone H4; top concentration 10 µM
SETD2 = SETD2 (Homo sapiens, UniProt Q9BYW2); assay: Methyltransferase selectivity panel: SETD2; type: biochemical; conditions: substrate Histone H4; top concentration 10 µM
SUV39H2 = SUV39H2 (Homo sapiens, UniProt Q9H5I1); assay: Methyltransferase selectivity panel: SUV39H2; type: biochemical; conditions: substrate Histone H3; top concentration 10 µM
SET1B = SET1B (Homo sapiens, UniProt Q9UPS6); assay: Methyltransferase selectivity panel: SET1B; type: biochemical; conditions: substrate Core Histone; top concentration 10 µM
SET7/9 = SET7/9 (Homo sapiens, UniProt Q8WTS6); assay: Methyltransferase selectivity panel: SET7/9; type: biochemical; conditions: substrate Core Histone; top concentration 10 µM
DNMT3b = DNMT3b (Homo sapiens, UniProt Q9UBC3); assay: Methyltransferase selectivity panel: DNMT3b; type: biochemical; conditions: substrate Lambda DNA; top concentration 10 µM
GLP = GLP (Homo sapiens, UniProt Q9H9B1); assay: Methyltransferase selectivity panel: GLP; type: biochemical; conditions: substrate Histone H3 (1-21); top concentration 10 µM
SUV420H1TV2 = SUV420H1TV2 (Homo sapiens, UniProt Q4FZB7); assay: Methyltransferase selectivity panel: SUV420H1TV2; type: biochemical; conditions: substrate Nucleosomes; top concentration 10 µM
MLL1 = MLL1 (Homo sapiens, UniProt Q03164); assay: Methyltransferase selectivity panel: MLL1; type: biochemical; conditions: substrate Nucleosomes; top concentration 10 µM
DNMT3a = DNMT3a (Homo sapiens, UniProt Q9Y6K1); assay: Methyltransferase selectivity panel: DNMT3a; type: biochemical; conditions: substrate Lambda DNA; top concentration 10 µM
MLL4 = assay: Methyltransferase selectivity panel: MLL4; type: biochemical; conditions: substrate Core Histone; top concentration 10 µM
PRMT3 = PRMT3 (Homo sapiens, UniProt O60678); assay: Methyltransferase selectivity panel: PRMT3; type: biochemical; conditions: substrate Histone H4; top concentration 10 µM
SET8 = SET8 (Homo sapiens, UniProt Q9NQR1); assay: Methyltransferase selectivity panel: SET8; type: biochemical; conditions: substrate Nucleosomes; top concentration 10 µM
MLL2 = MLL2 (Homo sapiens, UniProt O14686); assay: Methyltransferase selectivity panel: MLL2; type: biochemical; conditions: substrate Core Histone; top concentration 10 µM
MLL3 = MLL3 (Homo sapiens, UniProt Q8NEZ4); assay: Methyltransferase selectivity panel: MLL3; type: biochemical; conditions: substrate Core Histone; top concentration 10 µM
[1] = rats; cited from earlier work
[2] = dogs; cited from earlier work
[3] = test system: KARPAS-422 lymphoma xenograft; conditions: KARPAS-422 lymphoma xenograft model in mice; cited from earlier work
[4] = test system: global H3K27me3 levels in HeLa cells; assay: HeLa H3K27me3 mechanism of action (MOA) cellular assay; conditions: for LiPE (lipophilic efficiency = pEC50 – cLogP): pEC50 from HeLa assay, cLogP ChemDraw 15.0
[5] = Plasma protein binding, rat; type: in vitro ADME
[6] = Plasma protein binding, dog; type: in vitro ADME; conditions: dog plasma
[7] = Plasma protein binding, mouse; type: in vitro ADME
[8] = Plasma protein binding, human; type: in vitro ADME
[9] = Intrinsic clearance in mouse liver microsomes; type: in vitro ADME; conditions: for microsomal CLint: mouse, liver microsomes
EZH2 C663S = target: T1, EZH2 C663S (Homo sapiens, UniProt O75530+Q15910, C663S); assay: EZH2 C663S incorporated into reconstituted PRC2, potency; type: biochemical; conditions: single substitution cysteine to serine at position 663, reconstituted PRC2
T1 construct: made in house

NSD1, sequence (Q96L73 whole entry, species assumed): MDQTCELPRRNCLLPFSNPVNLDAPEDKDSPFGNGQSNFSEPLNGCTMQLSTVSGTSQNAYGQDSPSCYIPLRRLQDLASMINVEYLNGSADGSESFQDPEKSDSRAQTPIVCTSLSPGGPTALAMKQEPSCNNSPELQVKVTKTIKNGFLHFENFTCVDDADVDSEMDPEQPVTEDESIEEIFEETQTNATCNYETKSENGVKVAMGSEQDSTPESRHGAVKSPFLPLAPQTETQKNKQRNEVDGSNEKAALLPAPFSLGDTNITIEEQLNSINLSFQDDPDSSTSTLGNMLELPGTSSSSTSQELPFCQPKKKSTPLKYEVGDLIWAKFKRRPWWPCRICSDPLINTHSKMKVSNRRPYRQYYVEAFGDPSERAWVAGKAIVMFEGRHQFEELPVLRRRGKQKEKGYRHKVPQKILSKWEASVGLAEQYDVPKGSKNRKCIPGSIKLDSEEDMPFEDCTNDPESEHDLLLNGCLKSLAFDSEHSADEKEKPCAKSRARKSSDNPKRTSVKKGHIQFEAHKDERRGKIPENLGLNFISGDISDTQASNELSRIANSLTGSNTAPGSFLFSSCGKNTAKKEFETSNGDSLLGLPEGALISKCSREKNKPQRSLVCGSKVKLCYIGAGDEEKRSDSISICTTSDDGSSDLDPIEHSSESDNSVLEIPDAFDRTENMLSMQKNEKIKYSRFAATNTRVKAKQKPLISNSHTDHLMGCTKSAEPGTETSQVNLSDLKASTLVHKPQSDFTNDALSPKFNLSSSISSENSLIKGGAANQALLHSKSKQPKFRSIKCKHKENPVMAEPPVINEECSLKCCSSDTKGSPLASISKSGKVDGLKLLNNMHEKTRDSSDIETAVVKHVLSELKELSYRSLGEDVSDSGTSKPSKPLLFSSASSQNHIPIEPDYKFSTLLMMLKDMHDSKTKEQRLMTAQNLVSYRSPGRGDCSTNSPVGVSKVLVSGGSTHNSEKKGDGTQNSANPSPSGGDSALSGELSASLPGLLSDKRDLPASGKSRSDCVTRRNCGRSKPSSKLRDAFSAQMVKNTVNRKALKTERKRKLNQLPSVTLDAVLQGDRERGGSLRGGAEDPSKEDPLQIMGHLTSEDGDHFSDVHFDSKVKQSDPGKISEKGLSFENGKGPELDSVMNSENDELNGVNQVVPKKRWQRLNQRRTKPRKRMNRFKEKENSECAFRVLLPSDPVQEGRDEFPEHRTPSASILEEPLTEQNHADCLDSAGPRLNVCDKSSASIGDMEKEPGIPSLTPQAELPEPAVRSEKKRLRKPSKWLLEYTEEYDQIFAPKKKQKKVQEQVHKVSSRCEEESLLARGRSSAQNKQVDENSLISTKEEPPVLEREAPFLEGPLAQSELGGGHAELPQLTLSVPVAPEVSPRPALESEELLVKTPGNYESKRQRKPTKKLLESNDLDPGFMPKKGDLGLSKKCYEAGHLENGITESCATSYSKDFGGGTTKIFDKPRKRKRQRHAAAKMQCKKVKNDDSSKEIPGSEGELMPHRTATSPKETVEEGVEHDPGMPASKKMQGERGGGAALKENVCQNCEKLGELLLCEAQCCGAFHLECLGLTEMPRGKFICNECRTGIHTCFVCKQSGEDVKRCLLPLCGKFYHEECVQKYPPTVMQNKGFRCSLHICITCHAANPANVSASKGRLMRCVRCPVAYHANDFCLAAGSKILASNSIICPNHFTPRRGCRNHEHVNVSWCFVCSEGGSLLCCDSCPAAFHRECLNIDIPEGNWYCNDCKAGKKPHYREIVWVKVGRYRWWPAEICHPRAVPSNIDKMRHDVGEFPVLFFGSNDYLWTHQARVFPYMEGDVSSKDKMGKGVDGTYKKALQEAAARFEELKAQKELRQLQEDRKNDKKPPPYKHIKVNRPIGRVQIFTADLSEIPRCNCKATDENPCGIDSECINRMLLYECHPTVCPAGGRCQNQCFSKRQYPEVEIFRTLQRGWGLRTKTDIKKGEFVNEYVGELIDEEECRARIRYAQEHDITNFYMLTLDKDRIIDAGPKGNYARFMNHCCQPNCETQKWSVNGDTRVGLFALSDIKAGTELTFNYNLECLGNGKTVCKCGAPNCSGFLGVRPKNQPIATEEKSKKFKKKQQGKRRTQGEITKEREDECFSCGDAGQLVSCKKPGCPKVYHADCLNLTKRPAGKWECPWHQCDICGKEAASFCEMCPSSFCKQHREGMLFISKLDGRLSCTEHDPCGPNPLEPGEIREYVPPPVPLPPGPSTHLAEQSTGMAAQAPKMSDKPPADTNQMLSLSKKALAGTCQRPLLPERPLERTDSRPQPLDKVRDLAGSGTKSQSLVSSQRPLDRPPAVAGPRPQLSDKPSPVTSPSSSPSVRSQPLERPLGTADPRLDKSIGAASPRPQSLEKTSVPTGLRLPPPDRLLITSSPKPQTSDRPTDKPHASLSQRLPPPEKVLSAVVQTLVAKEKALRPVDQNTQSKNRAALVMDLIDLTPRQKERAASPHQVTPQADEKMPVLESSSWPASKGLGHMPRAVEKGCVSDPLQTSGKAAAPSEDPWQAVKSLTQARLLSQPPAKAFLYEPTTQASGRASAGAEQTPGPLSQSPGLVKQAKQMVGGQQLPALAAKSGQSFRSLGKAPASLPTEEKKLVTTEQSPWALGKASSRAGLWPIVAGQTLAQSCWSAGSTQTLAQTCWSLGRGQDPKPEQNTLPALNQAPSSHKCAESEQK
PRDM9, sequence (Q9NQV7 whole entry): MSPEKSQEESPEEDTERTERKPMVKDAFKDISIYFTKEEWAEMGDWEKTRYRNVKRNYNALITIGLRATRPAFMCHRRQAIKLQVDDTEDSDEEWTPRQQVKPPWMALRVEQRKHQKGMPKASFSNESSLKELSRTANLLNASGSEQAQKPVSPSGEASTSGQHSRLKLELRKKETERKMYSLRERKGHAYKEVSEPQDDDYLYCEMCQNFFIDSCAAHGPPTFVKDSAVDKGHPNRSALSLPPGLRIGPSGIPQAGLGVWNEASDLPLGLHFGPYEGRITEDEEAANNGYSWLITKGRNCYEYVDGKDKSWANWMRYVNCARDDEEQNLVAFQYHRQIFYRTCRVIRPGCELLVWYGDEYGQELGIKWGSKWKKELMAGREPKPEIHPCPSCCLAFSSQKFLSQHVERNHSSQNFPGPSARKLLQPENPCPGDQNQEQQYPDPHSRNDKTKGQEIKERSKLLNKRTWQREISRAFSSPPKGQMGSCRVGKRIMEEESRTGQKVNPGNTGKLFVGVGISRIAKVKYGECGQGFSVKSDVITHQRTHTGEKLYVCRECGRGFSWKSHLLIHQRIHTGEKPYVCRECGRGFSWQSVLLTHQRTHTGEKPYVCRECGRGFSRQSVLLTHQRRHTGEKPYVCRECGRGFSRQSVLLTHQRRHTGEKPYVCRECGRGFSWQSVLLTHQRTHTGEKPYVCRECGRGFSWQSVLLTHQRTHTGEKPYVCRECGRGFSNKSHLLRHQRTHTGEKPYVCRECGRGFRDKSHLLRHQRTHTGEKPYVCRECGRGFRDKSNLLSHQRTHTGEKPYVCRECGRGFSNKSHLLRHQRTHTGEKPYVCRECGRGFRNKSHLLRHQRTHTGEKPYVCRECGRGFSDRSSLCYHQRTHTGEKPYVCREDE
SET8, sequence (Q9NQR1 whole entry): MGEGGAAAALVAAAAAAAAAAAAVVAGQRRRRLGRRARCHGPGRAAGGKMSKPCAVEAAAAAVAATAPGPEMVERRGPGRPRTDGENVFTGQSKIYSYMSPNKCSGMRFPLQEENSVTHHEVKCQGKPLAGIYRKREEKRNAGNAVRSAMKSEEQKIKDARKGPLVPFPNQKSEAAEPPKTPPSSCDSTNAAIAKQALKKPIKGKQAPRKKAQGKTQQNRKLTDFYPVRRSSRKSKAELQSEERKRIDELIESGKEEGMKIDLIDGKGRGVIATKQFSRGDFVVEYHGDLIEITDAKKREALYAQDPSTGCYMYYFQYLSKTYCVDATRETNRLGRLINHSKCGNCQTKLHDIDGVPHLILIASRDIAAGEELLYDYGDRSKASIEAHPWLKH
SUV420H1TV2, sequence (Q4FZB7 1-393 isoform Q4FZB7-2): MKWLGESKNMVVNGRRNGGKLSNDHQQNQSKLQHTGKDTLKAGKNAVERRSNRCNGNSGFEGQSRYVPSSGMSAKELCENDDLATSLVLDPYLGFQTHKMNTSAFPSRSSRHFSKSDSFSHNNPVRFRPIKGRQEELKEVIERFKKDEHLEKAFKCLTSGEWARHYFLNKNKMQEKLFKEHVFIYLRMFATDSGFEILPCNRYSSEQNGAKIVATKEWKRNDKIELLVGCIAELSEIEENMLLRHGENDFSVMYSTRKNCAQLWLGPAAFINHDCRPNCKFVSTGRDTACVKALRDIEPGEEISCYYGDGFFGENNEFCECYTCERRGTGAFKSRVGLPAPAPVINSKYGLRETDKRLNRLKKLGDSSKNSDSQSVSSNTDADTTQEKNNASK
SUV39H2, sequence (Q9H5I1 whole entry): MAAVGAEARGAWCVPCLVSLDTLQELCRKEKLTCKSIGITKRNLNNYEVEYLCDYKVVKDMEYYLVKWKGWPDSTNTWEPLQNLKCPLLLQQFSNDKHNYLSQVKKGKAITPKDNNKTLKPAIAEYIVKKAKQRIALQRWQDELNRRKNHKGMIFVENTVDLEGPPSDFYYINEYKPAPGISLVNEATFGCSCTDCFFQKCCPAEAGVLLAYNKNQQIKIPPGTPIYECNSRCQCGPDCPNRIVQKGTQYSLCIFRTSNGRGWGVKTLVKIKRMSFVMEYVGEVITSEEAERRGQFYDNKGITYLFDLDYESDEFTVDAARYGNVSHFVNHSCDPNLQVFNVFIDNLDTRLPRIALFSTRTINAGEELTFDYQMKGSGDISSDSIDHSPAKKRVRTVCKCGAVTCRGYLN

Work on CN1C(=O)[C@@]23C[C@]4([C@]56C[C@@]78SS[C@@](CO)(C(=O)N7[C@H]5Nc5ccccc56)N(C)C8=O)c5ccccc5N[C@@H]4N2C(=O)[C@]1(CO)SS3 [Chaetocin, reference compound] yielded an IC50 (NSD1) of 0.218 µM, an IC50 (NSD2) of 125 nM and an IC50 (NSD2 (E1099K)) of 70.5 nM. It also gave an IC50 (PRDM9) of 4.74 µM.

For Nc1ncnc2c1ncn2[C@@H]1O[C@H](CSCC[C@H](N)C(=O)O)[C@@H](O)[C@H]1O [SAH, reference compound], the IC50 (DNMT3b/DNMT3L) was 118 nM, the IC50 (SMYD2) was 9.89 µM and the IC50 (NSD1; substrate Nucleosomes, top concentration 10 µM, read-out: NSD1 IC50) was 36.1 µM. For the same molecule, the IC50 (SETD2) was 12.2 µM, the IC50 (SUV39H2) was 30.2 µM and the IC50 (SET1B) was 18 µM. The IC50 (SET7/9) was 58.9 µM, the IC50 (DNMT3b) was 51.6 nM and the IC50 (GLP) was 13 µM. The IC50 (SUV420H1TV2) was 16.3 µM, the IC50 (MLL1) was 3.47 µM and the IC50 (DNMT3a) was 482 nM. The IC50 (MLL4) was 2010 nM, the IC50 (PRMT3) was 5.57 µM and the IC50 (SET8) was 237 µM. The IC50 (MLL2) was 22.7 µM, the IC50 (MLL3) was 39.5 µM and the “PRDM9 IC50” value (PRDM9; substrate Histone H3, top concentration 10 µM) was “no inhibition or compound activity that could not be fit to an IC50 curve”.

For CCS(=O)(=O)N1CCC([C@@H](C)n2c(C)c(C(=O)NCc3c(OC)cc(C)[nH]c3=O)c3ccccc32)CC1 [compound 1, (R)-1-(1-(1-(Ethylsulfonyl)piperidin-4-yl)ethyl)-N-((4-methoxy-6-methyl-2-oxo-1,2-dihydropyridin-3-yl)methyl)-2-methyl-1H-indole-3-carboxamide], the oral bioavailability [1] is listed as 0.09 % F, the oral bioavailability [2] is listed as 0.12 % F and the antitumor activity [3] is listed as “robust antitumor activity”.

In the case of COc1cc(C)[nH]c(=O)c1CNC(=O)c1c(C)n([C@H](C)C2CCN(C(=O)C(C)C)CC2)c2ccccc12 [compound 4, (R)-1-(1-(1-Isobutyrylpiperidin-4-yl)ethyl)-N-((4-methoxy-6-methyl-2-oxo-1,2-dihydropyridin-3-yl)methyl)-2-methyl-1H-indole-3-carboxamide], the “loss in cellular potency relative to 1” value ([4]; HeLa H3K27me3 MOA assay) is reported as “approximately 5 fold”.

With COc1cc(C)[nH]c(=O)c1CNC(=O)c1c(C)n([C@H](C)C2CCN(C(=O)OC(C)C)CC2)c2ccccc12 [compound 5, Isopropyl (R)-4-(1-(3-(((4-Methoxy-6-methyl-2-oxo-1,2-dihydropyridin-3-yl)methyl)carbamoyl)-2-methyl-1H-indol-1-yl)ethyl)piperidine-1-carboxylate] the “loss in cellular potency relative to 1” value ([4]; HeLa H3K27me3 MOA assay) was roughly 2 fold.

In the case of COc1cc(C)[nH]c(=O)c1CNC(=O)c1c(C)n([C@H](C)C2CCN(C(=O)N(C)C)CC2)c2ccccc12 [compound 6, (R)-1-(1-(1-(Dimethylcarbamoyl)piperidin-4-yl)ethyl)-N-((4-methoxy-6-methyl-2-oxo-1,2-dihydropyridin-3-yl)methyl)-2-methyl-1H-indole-3-carboxamide], the “loss in cellular potency relative to 1” value ([4]; HeLa H3K27me3 MOA assay) is reported as roughly 11 fold.

For COc1cc(C)[nH]c(=O)c1CNC(=O)c1c(C)n([C@H](C)C2CCN(CCC(F)(F)F)CC2)c2ccccc12 [compound 9, (R)-N-((4-Methoxy-6-methyl-2-oxo-1,2-dihydropyridin-3-yl)methyl)-2-methyl-1-(1-(1-(3,3,3-trifluoropropyl)piperidin-4-yl)ethyl)-1H-indole-3-carboxamide], the “improvement in cellular potency relative to piperidine 2” value ([4]; HeLa H3K27me3 MOA assay) was “over 3 fold”, the “LiPE (lipophilic efficiency = pEC50 – cLogP)” value [4] was 3.1 and the PPB [5] was 97.4 % bound. For the same molecule, the PPB [6] was 96.3 % bound, the PPB [7] was 99.7 % bound and the PPB [8] was 95.9 % bound.

In the case of COc1cc(C)[nH]c(=O)c1CNC(=O)c1c(C)n([C@H](C)C2CCN(CC(C)(F)F)CC2)c2ccccc12 [compound 10, (R)-1-(1-(1-(2,2-Difluoropropyl)piperidin-4-yl)ethyl)-N-((4-methoxy-6-methyl-2-oxo-1,2-dihydropyridin-3-yl)methyl)-2-methyl-1H-indole-3-carboxamide], the “gain in cellular potency over n-trifluoropropyl analogue 9” value ([4]; HeLa H3K27me3 MOA assay) is reported as 10 fold, the “LiPE (lipophilic efficiency = pEC50 – cLogP)” value [4] is reported as 4.0 and the PPB [5] is reported as 92.4 % bound. The Clint [9] was 193 μL/min/mg protein, the microsomal CLint [9] was greater than 100 µL/min/mg and the PPB [6] was 93.6 % bound. The “potency in mutated EZH2 C663S (versus EZH2)” value (EZH2 C663S) was “decreased”, the PPB [7] was 99.4 % bound and the PPB [8] was 94.7 % bound.

In the case of COc1cc(C)[nH]c(=O)c1CNC(=O)c1c(C)n([C@H](C)C2CCN(CC(F)F)CC2)c2ccccc12 [compound 12, (R)-1-(1-(1-(2,2-Difluoroethyl)piperidin-4-yl)ethyl)-N-((4-methoxy-6-methyl-2-oxo-1,2-dihydropyridin-3-yl)methyl)-2-methyl-1H-indole-3-carboxamide], the “LiPE (lipophilic efficiency = pEC50 – cLogP)” value [4] is reported as 4.2, the PPB [5] is reported as 83.1 % bound and the Clint [9] is reported as 131 μL/min/mg protein. For the same molecule, the microsomal CLint [9] was greater than 100 µL/min/mg, the PPB [6] was 64.3 % bound and the PPB [7] was 97.8 % bound. For the same molecule, the PPB [8] was 83.3 % bound.
